In patent publication US20240226049A1, “METHODS OF TREATMENT USING BEMPEDOIC ACID” (Esperion Therapeutics, Inc., priority 2023, published 2024):

Legend:
[1] = system: primary prevention patients unable to tolerate recommended doses of statins; assay: CLEAR OUTCOMES primary prevention subgroup (Example 2): effects on LDL cholesterol and hsCRP; format: in vivo, human
Procedure: (§1) The rationale, design and methods of the CLEAR Outcomes trial is described in Example 1. The trial was conducted at 1250 sites in 32 countries and designed by the Cleveland Clinic Coordinating Center for Clinical Research (C5Research) and an academic Executive Committee in collaboration with the sponsor. The protocol was approved by ethics committees at participating sites and all patients provided written informed consent before enrollment. A contract research organization collected the data which were transferred to C5Research at completion of the trial whose statisticians conducted the analyses described herein. An independent Data Monitoring Committee monitored the trial.
(§2) Primary prevention patients 18 to 85 years of age with an LDL cholesterol ≥100 mg/dL with clinical features placing them at high risk for a first cardiovascular event were eligible. Criteria for high cardiovascular risk included risk scores, such as the Reynolds Risk Score and the SCORE project (Ridker et al., Development and validation of improved algorithms for the assessment of global cardiovascular risk in women: the Reynolds Risk Score, JAMA. 2007 Feb. 14; 297(6):611-9; Ridker et al., C-reactive protein and parental history improve global cardiovascular risk prediction. The Reynolds Risk Score for men, Circulation. 2008; 118: 2243-2251; European Guidelines on CVD Prevention in Clinical Practice. 2016. Eur J Prev Cardiol. 2016 July; 23(11):NP1-NP96), a coronary artery calcium score >400 Agatston units (AU) or presence of either type 1 or 2 diabetes in women aged >65 years or men older than 60 years.
(§3) Investigators were responsible for assessing the patient for statin intolerance. Patients had to report statin intolerance due to an adverse effect that started or increased during statin therapy and resolved or improved after statin therapy was discontinued. Entry criteria required inability to tolerate 2 or more statins at any dose or 1 statin and unwillingness to attempt a second statin or advised by a physician not to attempt taking a second statin. Both the patient and site investigator were required to provide written confirmation that the patient was statin intolerant and aware of the benefits of statins to reduce the risk of cardiovascular events, including death, and acknowledge that many patients who are unable to tolerate a statin can tolerate a different statin or dose. Patients could be enrolled if they tolerated a very low average daily statin dose defined as rosuvastatin <5 mg, atorvastatin <10 mg, simvastatin <10 mg, lovastatin <20 mg, pravastatin <40 mg, fluvastatin <40 mg, or pitavastatin <2 mg. Other background lipid-lowering therapies were permitted, including ezetimibe, niacin, bile acid resins, fibrates, and/or proprotein convertase subtilisin kexin type 9 (PCSK9) inhibitors.
(§4) Eligible patients entered a 4-week run-in period during which patients were treated with single-blind placebo. If patients were intolerant to placebo treatment or if adherence was <80% by tablet count, they were not eligible for randomization. Patients who successfully completed the run-in period were randomly assigned in a 1:1 ratio to receive a 180 mg oral dose of bempedoic acid or matching placebo, administered daily. During the trial, LDL cholesterol and hsCRP results were masked. Beginning 6 months after randomization, the central laboratory notified the investigator, who remained blinded to treatment assignment, if the patient's LDL cholesterol level was ≥25% higher than baseline. Repeat testing was performed after the patient was counseled about diet and encouraged to take all medications as prescribed. The patient returned for a repeat fasting blood lipid profile to confirm whether the LDL cholesterol value exceeded the threshold criteria. If confirmed, the patient's treatment regimen for LDL cholesterol lowering could be adjusted, per standard of care and local practice. […]

[2] = system: primary prevention patients unable to tolerate recommended doses of statins; assay: CLEAR OUTCOMES primary prevention subgroup (Example 2): investigator-reported adverse events and safety laboratory findings; format: in vivo
Procedure: as §1, §2, §3, §4

[3] = primary prevention subgroup, vs placebo
[4] = primary prevention, after 12 months treatment
[5] = primary prevention, baseline mean 142.2 mg/dL
[6] = primary prevention safety population
[7] = primary prevention safety population, N = 2104
[8] = primary prevention, after 6 months
[9] = primary prevention, after 12 months

For `CC(C)(CCCCCC(O)CCCCCC(C)(C)C(=O)O)C(=O)O` [Bempedoic Acid, Bempedoic acid], the “time-averaged difference in LDL cholesterol over the course of the trial” value [1, 3] was 23.2 mg/dL, the “time-averaged difference in LDL cholesterol over the duration of the trial, percent” value [1, 3] was 16.3% and the “difference in hsCRP reduction compared with placebo” value [1, 4] was 0.56 mg/L. The “difference in hsCRP reduction compared with placebo, percent” value [1, 4] was 21.5%, the “LS mean difference in LDL cholesterol compared with placebo after 6 months, percent” value [1, 5] was 21.3% and the “LS mean reduction in LDL cholesterol compared with placebo after 6 months of treatment” value [1, 5] was 30.2 mg/dL. The “reduction of hsCRP after 12 months treatment” value ([1]; primary prevention, median baseline 2.4 mg/L, bempedoic acid group) was 0.34 mg/L, the “New onset diabetes in patients with pre-diabetes at baseline, %” value [2, 6] was “(8.4) %” and the “New onset diabetes in patients without diabetes at baseline, %” value [2, 6] was “(6.4) %”. For the same compound, the “Adjudicated tendon rupture, %” value [2, 7] was 1.4%, the “Adverse event leading to drug discontinuation, %” value [2, 7] was 9.9% and the “Any treatment emergent adverse event, %” value [2, 7] was 84.8%. For the same compound, the “Atrial fibrillation, %” value [2, 7] was 2.5%, the “Cholelithiasis, %” value [2, 7] was 2.5% and the “Discontinuation of treatment due to myalgia, %” value [2, 7] was 1.4%. For the same compound, the “Elevated hepatic enzymes, %” value [2, 7] was 4.5%, the “Gout, %” value [2, 7] was 2.6% and the “Hyperuricemia, %” value [2, 7] was 12.1%. The “Hypoglycemia, %” value [2, 7] was 4.9%, the “Malignancies, %” value [2, 7] was 4.0% and the “Muscular disorders, %” value [2, 7] was 12.8%. For the same compound, the “Myalgias, %” value [2, 7] was 4.2%, the “Neurocognitive disorders, %” value [2, 7] was 0.4% and the “Renal impairment, %” value [2, 7] was 10.3%. The “Serious treatment emergent adverse event, %” value [2, 7] was 19.9%, the “Tendinopathies, %” value [2, 7] was 1.8% and the “Change from baseline in creatinine levels, mean (SD)” value [2, 8] was 0.05 (0.19) mg/dL. For the same compound, the “Change from baseline in uric acid level, mean (SD)” value [2, 8] was 0.80 (1.1)^ mg/dL, the “Patients with creatinine >1.5 mg/dL, %” value [2, 8] was “(3.3%)” and the “Patients with uric acid level >8.5 mg/dL, %” value [2, 8] was “(10.8%)”. For the same compound, the “Change from baseline in glycated hemoglobin level (%), patients with diabetes at baseline” value [2, 9] was 0.03(0.96) %, the “Change from baseline in glycated hemoglobin level (%), patients without diabetes at baseline” value [2, 9] was 0.02(0.26) % and the “Change from baseline in glycated hemoglobin level (%)” value ([2]; primary prevention, after 12 months, not a prespecified safety measure) was 0.03 (0.79) %. For the same compound, the “Aspartate aminotransferase level >3 times ULN, %” value ([2]; primary prevention, at any visit) was 3.5%, the “Creatine kinase levels >10x ULN (single occurrence), %” value ([2]; primary prevention, at any visit, N = 2104) was 0.2% and the “Alanine aminotransferase level >3 times ULN, %” value ([2]; primary prevention, at any visit, repeated and confirmed) was 2.1%. The “Worsening hyperglycemia, %” value ([2]; primary prevention, in patients with diabetes at baseline) was “(21.6) %”.
